# Test results from ChEMBL document CHEMBL1124351, “Syntheses and bioevaluation of substituted dihydropyridines for pregnancy-interceptive activity in hamsters” (1989).
# Legend:
# [1] = system: Progesterone receptor (Mesocricetus auratus); test: Percent inhibition of [3H]- progesterone binding to Syrian golden hamster uterine cytosol progesterone receptor, at 10e-7 M compound concentration; conditions: at 0.1 µM
# [2] = target: T1, Progesterone receptor (Oryctolagus cuniculus) (UniProt P06186); test: Percent inhibition of [3H]- progesterone binding to rabbit uterine progesterone receptor, at 10e-8 M compound concentration; conditions: at 0.01 µM
# T1 sequence (whole entry): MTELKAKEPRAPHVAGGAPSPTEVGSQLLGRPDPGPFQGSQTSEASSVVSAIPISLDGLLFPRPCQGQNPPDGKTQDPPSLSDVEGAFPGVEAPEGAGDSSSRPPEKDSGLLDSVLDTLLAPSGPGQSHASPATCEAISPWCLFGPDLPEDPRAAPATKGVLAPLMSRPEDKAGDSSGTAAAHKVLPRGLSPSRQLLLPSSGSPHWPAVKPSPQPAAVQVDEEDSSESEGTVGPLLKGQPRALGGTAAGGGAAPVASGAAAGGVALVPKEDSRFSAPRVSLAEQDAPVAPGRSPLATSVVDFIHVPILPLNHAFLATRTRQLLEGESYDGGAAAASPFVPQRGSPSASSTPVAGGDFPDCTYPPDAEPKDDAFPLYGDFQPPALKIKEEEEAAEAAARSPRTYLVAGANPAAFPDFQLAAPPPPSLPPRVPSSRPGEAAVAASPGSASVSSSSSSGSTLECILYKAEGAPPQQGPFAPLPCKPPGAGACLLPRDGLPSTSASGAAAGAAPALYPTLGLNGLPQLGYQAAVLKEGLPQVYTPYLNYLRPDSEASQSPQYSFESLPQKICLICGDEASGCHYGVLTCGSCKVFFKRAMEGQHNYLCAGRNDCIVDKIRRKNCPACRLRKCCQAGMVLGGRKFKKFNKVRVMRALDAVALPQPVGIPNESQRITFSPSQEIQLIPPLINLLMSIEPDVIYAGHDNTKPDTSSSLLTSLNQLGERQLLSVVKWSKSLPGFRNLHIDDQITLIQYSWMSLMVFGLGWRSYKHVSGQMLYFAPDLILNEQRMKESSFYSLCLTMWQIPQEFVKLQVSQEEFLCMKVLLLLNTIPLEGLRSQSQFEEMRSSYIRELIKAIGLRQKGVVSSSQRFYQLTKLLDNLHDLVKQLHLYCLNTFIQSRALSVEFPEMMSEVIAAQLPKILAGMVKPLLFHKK
# [3] = system: Progesterone receptor (Mesocricetus auratus); test: Percent inhibition of [3H]- progesterone binding to Syrian golden hamster uterine cytosol progesterone receptor, at 10e-6 M compound concentration; conditions: at 1 µM
# [4] = target: T1, Progesterone receptor (Oryctolagus cuniculus); test: Percent inhibition of [3H]- progesterone binding to rabbit uterine progesterone receptor, at 10e-7 M compound concentration; conditions: at 0.1 µM
# [5] = target: T1, Progesterone receptor (Oryctolagus cuniculus); test: Percent inhibition of [3H]- progesterone binding to rabbit uterine progesterone receptor, at 10e-9 M compound concentration; conditions: at 0.001 µM
# [6] = system: Progesterone receptor (Mesocricetus auratus); test: Percent inhibition of [3H]- progesterone binding to Syrian golden hamster uterine cytosol progesterone receptor, at 10e-8 M compound concentration; conditions: at 0.01 µM
# [7] = target: T1, Progesterone receptor (Oryctolagus cuniculus); test: Percent inhibition of [3H]- progesterone binding to rabbit uterine progesterone receptor, at 10e-6 M compound concentration; conditions: at 1 µM
# [8] = system: Progesterone receptor (Mesocricetus auratus); test: Percent inhibition of [3H]- progesterone binding to Syrian golden hamster uterine cytosol progesterone receptor, at 10e-5 M compound concentration; conditions: at 10 µM
# [9] = system: Cricetinae gen. sp.; test: Activity against pregnancy-interceptive activity in Syrian golden hamsters, when administered, at a dose of 13.15 mmol/kg; format: functional
# [10] = system: Progesterone receptor (Mesocricetus auratus); test: Percent inhibition of [3H]- progesterone binding to Syrian golden hamster uterine cytosol progesterone receptor, at 10e-9 M compound concentration; conditions: at 0.001 µM
# [11] = target: T1, Progesterone receptor (Oryctolagus cuniculus); test: Percent inhibition of [3H]- progesterone binding to rabbit uterine progesterone receptor, at 10e-5 M compound concentration; conditions: at 10 µM
# [12] = system: Cricetinae gen. sp.; test: Activity against pregnancy-interceptive activity in Syrian golden hamsters, when administered, at a dose of 19.43 mmol/kg; format: functional
# [13] = system: Cricetinae gen. sp.; test: Activity against pregnancy-interceptive activity in Syrian golden hamsters, when administered, at a dose of 15.11 mmol/kg; format: functional
# [14] = system: Cricetinae gen. sp.; test: Activity against pregnancy-interceptive activity in Syrian golden hamsters, when administered, at a dose of 12.08 mmol/kg; format: functional
# [15] = system: Cricetinae gen. sp.; test: Activity against pregnancy-interceptive activity in Syrian golden hamsters, when administered, at a dose of 6.70 mmol/kg; format: functional
# [16] = target: T1, Progesterone receptor (Oryctolagus cuniculus); test: Percent inhibition of [3H]- progesterone binding to rabbit uterine progesterone receptor at 10e-7 M
# [17] = system: Cricetinae gen. sp.; test: Activity against pregnancy-interceptive activity in Syrian golden hamsters, when administered, at a dose of 6.96 mmol/kg; format: functional
# [18] = system: Cricetinae gen. sp.; test: Activity against pregnancy-interceptive activity in Syrian golden hamsters, when administered, at a dose of 6.66 mmol/kg; format: functional
# [19] = system: Cricetinae gen. sp.; test: Activity against pregnancy-interceptive activity in Syrian golden hamsters, when administered, at a dose of 15.20 mmol/kg; format: functional
# [20] = system: Cricetinae gen. sp.; test: Activity against pregnancy-interceptive activity in Syrian golden hamsters, when administered, at a dose of 6.36 mmol/kg; format: functional, Cricetulus griseus
# [21] = system: Cricetinae gen. sp.; test: Activity against pregnancy-interceptive activity in Syrian golden hamsters, when administered, at a dose of 5.64 mmol/kg; format: functional
# [22] = system: Cricetinae gen. sp.; test: Activity against pregnancy-interceptive activity in Syrian golden hamsters, when administered, at a dose of 4.95 mmol/kg; format: functional
# [23] = system: Cricetinae gen. sp.; test: Activity against pregnancy-interceptive activity in Syrian golden hamsters, when administered, at a dose of 5.54 mmol/kg; format: functional
# [24] = system: Cricetinae gen. sp.; test: Activity against pregnancy-interceptive activity in Syrian golden hamsters, when administered, at a dose of 14.62 mmol/kg; format: functional
# [25] = system: Cricetinae gen. sp.; test: Activity against pregnancy-interceptive activity in Syrian golden hamsters, when administered, at a dose of 7.83 mmol/kg; format: functional
# [26] = system: Cricetinae gen. sp.; test: Activity against pregnancy-interceptive activity in Syrian golden hamsters, when administered, at a dose of 8.82 mmol/kg; format: functional
# [27] = system: Cricetinae gen. sp.; test: Activity against pregnancy-interceptive activity in Syrian golden hamsters, when administered, at a dose of 8.35 mmol/kg; format: functional, Cricetulus griseus
# [28] = system: Cricetinae gen. sp.; test: Activity against pregnancy-interceptive activity in Syrian golden hamsters, when administered, at a dose of 6.98 mmol/kg; format: functional
Compound,inhibition [1] [%],inhibition [2] [%],inhibition [3] [%],inhibition [4] [%],inhibition [5] [%],inhibition [6] [%],inhibition [7] [%],inhibition [8] [%],inhibition [10] [%],inhibition [11] [%],also measured
COC(=O)C1=C(C)N=C(C)/C(=C(/O)OC)C1c1ccc(Cl)c([N+](=O)[O-])c1 (centres undefined),10,0,14,5,0,5,10,24,2,18,Activity [9]: 2.6
COC(=O)C1=C(C)N=C(C)/C(=C(/O)OC)C1c1cc2ccccc2nc1Cl (centres undefined),11,11,14,10,8,10,16,14,6,17,Activity [12]: 3
COC(=O)C1=C(C)N=C(C)/C(=C(/O)OC)C1c1ccc(N)c(N)c1 (centres undefined),9,10,14,16,13,0,15,18,0,21,Activity [13]: 2.3
COC(=O)Nc1nc2cc(C3C(C(=O)OC)=C(C)N=C(C)/C3=C(/O)OC)ccc2[nH]1 (centres undefined),16,5,15,16,5,10,16,28,0,20,Activity [14]: 1.5
COC(=O)C1=C(C)N=C(C)/C(=C(/O)OC)C1c1ccc2[nH]c(S)nc2c1 (centres undefined),18,10,26,15,0,10,18,30,9,20,Activity [15]: 5
COC(=O)C1=C(C)N=C(C)/C(=C(\O)OC)C1c1ccc(C(=O)OC)cc1 (centres undefined),27,0,32,,0,10,15,40,10,25,inhibition [16]: 20%; Activity [17]: 0.72
CNc1ccc(C2C(C(=O)OC)=C(C)N=C(C)/C2=C(/O)OC)cc1[N+](=O)[O-] (centres undefined),10,8,13,10,5,4,10,12,4,14,Activity [18]: 6.8
COC(=O)C1=C(C)N=C(C)/C(=C(/O)OC)C1c1ccc(C=O)cc1 (centres undefined),5,4,10,8,3,9,10,12,0,15,Activity [19]: 5.15
COC(=O)C1=C(C)N=C(C)/C(=C(/O)OC)C1c1cc2ccccc2n2nnnc12 (centres undefined),10,10,9,12,0,8,8,10,0,14,Activity [20]: 2.5
COC(=O)C1=C(C)N=C(C)/C(=C(/O)OC)C1c1ccc2nc3n(c2c1)C(=O)c1ccccc1-3 (centres undefined),8,0,10,0,0,9,15,16,6,15,Activity [21]: 3.8
COC(=O)C1=C(C)N=C(C)/C(=C(/O)OC)C1c1ccc2nc(-c3ccccc3)c(-c3ccccc3)nc2c1 (centres undefined),12,2,15,10,2,9,18,18,6,16,Activity [22]: 4.6
COC(=O)C1=C(C)N=C(C)/C(=C(/O)OC)C1c1ccc(NCc2ccccc2)c([N+](=O)[O-])c1 (centres undefined),4,10,6,0,0,0,10,10,0,12,Activity [23]: 2.5
COC(=O)C1=C(C)N=C(C)/C(=C(/O)OC)C1c1ccc2[nH]nnc2c1 (centres undefined),16,8,18,12,10,12,20,26,9,22,Activity [24]: 5.2
COC(=O)C1=C(C)N=C(C)/C(=C(\O)OC)C1c1cc(C(=O)c2ccc(C)cc2)c(OC)cc1OC (centres undefined),15,11,15,,10,12,18,18,8,23,Activity [25]: 6; inhibition [16]: 15%
COC(=O)C1=C(C)N=C(C)/C(=C(/O)OC)C1c1ccc2nc(-c3ccc(OC)cc3)n(Cc3ccc(OC)cc3)c2c1 (centres undefined),15,6,20,10,2,12,16,24,10,20,Activity [26]: 6
COC(=O)C1=C(C)N=C(C)/C(=C(/O)OC)C1c1ccc2nc(-c3ccc(O)c(OC)c3)n(Cc3ccc(O)c(OC)c3)c2c1 (centres undefined),12,8,18,15,5,5,15,18,3,20,Activity [27]: 1.2
COC(=O)C1=C(C)N=C(C)/C(=C(\O)OC)C1c1ccc(NC(C)=O)cc1 (centres undefined),,,,,,,18,,,15,Activity [28]: 0.66
